The results in this text go back to ChEMBL document CHEMBL1125888, “Inhibitors of cholesterol biosynthesis. 3. Tetrahydro-4-hydroxy-6-[2-(1H-pyrrol-1-yl)ethyl]-2H-pyran-2-one inhibitors of HMG-CoA reductase. 2. Effects of introducing substituents at positions three and four of the pyrrole nucleus” (J Med Chem, 1991).

Experiment [1] deals with T1, 3-hydroxy-3-methylglutaryl-coenzyme A reductase (Rattus norvegicus, UniProt P51639).
T1 sequence (P51639 whole entry): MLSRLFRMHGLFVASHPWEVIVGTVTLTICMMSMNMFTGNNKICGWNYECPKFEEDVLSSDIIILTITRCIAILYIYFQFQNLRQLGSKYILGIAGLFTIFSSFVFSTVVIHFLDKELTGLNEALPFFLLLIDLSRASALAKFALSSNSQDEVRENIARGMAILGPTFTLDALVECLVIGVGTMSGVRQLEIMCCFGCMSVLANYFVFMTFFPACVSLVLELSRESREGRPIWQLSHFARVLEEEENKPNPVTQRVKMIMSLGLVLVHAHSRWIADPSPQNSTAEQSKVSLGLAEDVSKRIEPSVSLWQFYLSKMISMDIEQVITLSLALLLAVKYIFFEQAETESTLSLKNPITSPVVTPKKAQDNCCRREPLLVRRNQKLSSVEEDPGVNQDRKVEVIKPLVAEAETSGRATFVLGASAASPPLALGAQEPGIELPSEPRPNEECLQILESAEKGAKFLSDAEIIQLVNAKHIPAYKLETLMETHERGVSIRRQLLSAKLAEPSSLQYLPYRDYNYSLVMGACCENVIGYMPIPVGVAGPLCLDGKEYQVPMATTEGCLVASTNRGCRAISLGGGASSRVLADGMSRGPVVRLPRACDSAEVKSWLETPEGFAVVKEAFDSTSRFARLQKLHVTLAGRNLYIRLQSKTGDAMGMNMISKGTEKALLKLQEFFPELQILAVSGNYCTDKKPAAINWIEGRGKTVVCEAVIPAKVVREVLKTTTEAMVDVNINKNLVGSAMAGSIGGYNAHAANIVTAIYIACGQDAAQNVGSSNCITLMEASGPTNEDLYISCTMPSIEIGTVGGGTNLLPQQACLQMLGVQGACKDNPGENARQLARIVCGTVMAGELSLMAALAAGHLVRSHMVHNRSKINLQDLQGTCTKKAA
The experiment can be described thus: Inhibition of HMG-CoA reductase activity in partially purified rat liver.

Experiment [2] deals with T2, 3-hydroxy-3-methylglutaryl-coenzyme A reductase (Rattus norvegicus) (UniProt P51639).
T2 sequence (whole entry): T1 sequence (P51639 whole entry)
Put plainly: Relative potency against HMG-CoA reductase activity in partially purified rat liver. In kind it is functional.

`CC(C)c1cc(C(=O)C(F)(F)F)c(-c2ccc(F)cc2)n1CC[C@@H]1C[C@@H](O)CC(=O)O1`: the IC50 in experiment [1] amounted to 800 nM. Besides, in experiment [2], the Relative potency stood at 8.8.

Take `CC(C)c1c(C(=O)Nc2ccccc2)c(-c2ccccc2)c(-c2ccc(F)cc2)n1CC[C@@H]1C[C@@H](O)CC(=O)O1` (stereo in doubt; (-)-33): the Relative potency in experiment [2] turned out to be 13.9.

With `CC[C@H](C)C(=O)O[C@H]1CCC=C2C=C[C@H](C)[C@H](CC[C@@H]3C[C@@H](O)CC(=O)O3)[C@H]21` [MEVASTATIN], in experiment [1], the IC50 amounted to 30 nM. In addition, the Relative potency in experiment [2] came to 100.

Consider `CC(C)c1c(C(=O)Nc2ccccc2)c(-c2ccccc2)c(-c2ccc(F)cc2)n1CC[C@@H]1C[C@@H](O)CC(=O)O1` (racemic) [ATORVASTATIN LACTONE], for which the IC50 in experiment [1] was 25 nM.

Consider `CCOC(=O)c1c(-c2ccccc2)c(C(C)C)n(CC[C@@H]2C[C@@H](O)CC(=O)O2)c1-c1ccc(F)cc1`, for which the IC50 in experiment [1] came out at 50 nM. This compound also showed a Relative potency in experiment [2] of 100.

Consider `CC(C)c1cc(-c2cccnc2)c(-c2ccc(F)cc2)n1CC[C@@H]1C[C@@H](O)CC(=O)O1`, for which, in experiment [1], the half-inhibitory concentration (IC50) amounted to 71 nM. For the same compound, the Relative potency in experiment [2] was found to be 9.4.

With `CC(C)c1c(C(=O)Nc2ccccc2)c(-c2ccccc2)c(-c2ccc(F)cc2)n1CC[C@@H]1C[C@@H](O)CC(=O)O1` (stereo in doubt; (-)-33) [ATORVASTATIN LACTONE], the IC50 in experiment [1] stood at 440 nM.

In turn, `CC(C)c1ccc(-c2ccc(F)cc2)n1CC[C@@H]1C[C@@H](O)CC(=O)O1` showed a Relative potency in experiment [2] of 10.9.

Regarding `CC(C)c1c(Br)c(Br)c(-c2ccc(F)cc2)n1CC[C@@H]1C[C@@H](O)CC(=O)O1`, the midpoint of inhibition in experiment [1], the IC50, lay at 28 nM. This compound registered a Relative potency in experiment [2] of 78.6.

`CC(C)c1cc(-c2ccccn2)c(-c2ccc(F)cc2)n1CC[C@@H]1C[C@@H](O)CC(=O)O1` yielded a 50% inhibitory concentration (IC50) in experiment [1] of 46 nM. This compound also registered a Relative potency in experiment [2] of 76.

Take `CC(C)c1c(C(=O)Nc2ccccc2)c(-c2ccccc2)c(-c2ccc(F)cc2)n1CC[C@@H]1C[C@@H](O)CC(=O)O1` (stereo in doubt; (+)-33) [ATORVASTATIN LACTONE]: in experiment [1], inhibition was half-maximal at 7 nM (IC50).

In turn, `CCOC(=O)c1c(-c2ccccc2)c(-c2ccccc2)n(CC[C@@H]2C[C@@H](O)CC(=O)O2)c1C` showed a half-maximal inhibitory concentration (IC50) in experiment [1] of 4000 nM. The compound further registered a Relative potency in experiment [2] of 0.6.

Turning to `COC(=O)c1c(C(=O)OC)c(C(C)C)n(CC[C@@H]2C[C@@H](O)CC(=O)O2)c1-c1ccc(F)cc1`, the IC50 in experiment [1] was 180 nM. In addition, in experiment [2], the Relative potency came to 14.3.

Turning to `CCOC(=O)c1c(-c2ccc(C#N)cc2)c(-c2ccc(F)cc2)n(CC[C@@H]2C[C@@H](O)CC(=O)O2)c1C(C)C`, the IC50 in experiment [1] came out at 280 nM. This compound also returned a Relative potency in experiment [2] of 16.2.

For the compound `Cc1c(C)c(C(C)C)n(CC[C@@H]2C[C@@H](O)CC(=O)O2)c1-c1ccc(F)cc1`, in experiment [1], half-maximal inhibition (IC50) required 140 nM. Besides, in experiment [2], the Relative potency is 16.

For `CCOC(=O)c1c(-c2ccccc2)c(-c2ccccc2)n(CC[C@@H]2C[C@@H](O)CC(=O)O2)c1C(C)C`, the half-maximal inhibitory concentration (IC50) in experiment [1] amounted to 170 nM. The Relative potency in experiment [2] stood at 23.5.

As for `CC(C)c1cc(-c2ccccc2)c(-c2ccc(F)cc2)n1CC[C@@H]1C[C@@H](O)CC(=O)O1`, in experiment [1], it took 347 nM to reach half-maximal inhibition (IC50). In experiment [2], this compound had a Relative potency of 12.5.

Turning to `CCOC(=O)c1c(-c2ccccc2)c(-c2ccccc2)n(CC[C@@H]2C[C@@H](O)CC(=O)O2)c1CC`, in experiment [1], the concentration for half-maximal inhibition (IC50) was 890 nM. The Relative potency in experiment [2] stood at 6.3.

In the case of `CC(C)c1c(-c2ccccc2)cc(-c2ccc(F)cc2)n1CC[C@@H]1C[C@@H](O)CC(=O)O1`, the IC50 in experiment [1] stood at 120 nM. In experiment [2], the Relative potency came to 36.3.

For the compound `CC(C)c1c(C(=O)Nc2ccccc2)c(-c2ccccc2)c(-c2ccc(F)cc2)n1CC[C@@H]1C[C@@H](O)CC(=O)O1` (racemic), in experiment [2], the Relative potency came to 81.4.

In experiment [1], `CCOC(=O)c1c(-c2ccccc2)c(-c2ccc(F)cc2)n(CC[C@@H]2C[C@@H](O)CC(=O)O2)c1C(C)C` displayed a half-maximal inhibitory concentration (IC50) of 200 nM. In experiment [2], this compound yielded a Relative potency of 35.5.

Regarding `CC(C)c1c(Cl)c(Cl)c(-c2ccc(F)cc2)n1CC[C@@H]1C[C@@H](O)CC(=O)O1`, the IC50 in experiment [1] stood at 28 nM. For the same compound, in experiment [2], the Relative potency turned out to be 78.6.

On to `CC(C)c1cc(-c2ccncc2)c(-c2ccc(F)cc2)n1CC[C@@H]1C[C@@H](O)CC(=O)O1`, for which the IC50 in experiment [1] worked out at 310 nM. This compound gave a Relative potency in experiment [2] of 2.1.

For the compound `CCOC(=O)c1c(C(=O)OCC)c(C(C)C)n(CC[C@@H]2C[C@@H](O)CC(=O)O2)c1-c1ccc(F)cc1`, in experiment [1], 350 nM corresponded to half-maximal inhibition (IC50). For the same compound, the Relative potency in experiment [2] was 2.8.

Compound `CC(C)c1c(C(=O)Nc2ccccc2)c(-c2ccccc2)c(-c2ccc(F)cc2)n1CC[C@@H]1C[C@@H](O)CC(=O)O1` (stereo in doubt; (+)-33) yielded a Relative potency in experiment [2] of 500.

In turn, `CC(C)c1c(C(=O)OCc2ccccc2)c(-c2ccccc2)c(-c2ccc(F)cc2)n1CC[C@@H]1C[C@@H](O)CC(=O)O1` came in with an IC50 in experiment [1] of 40 nM. The same compound gave a Relative potency in experiment [2] of 24.
